The results in this text go back to patent publication EP0437790B1, “Antithrombotic compounds” (MERRELL DOW PHARMACEUTICALS INC., priority 1989, dated 1991).

For assay [1], the target named is T1, 5HT₂ receptor (Rattus norvegicus, UniProt P14842).
T1 construct: from tissue; host or cells: Brain membranes (rat frontal cortex)
The experiment in a line: [³H] spiroperidol binding test. The conditions noted are these: decrease in binding of [³H] spiroperidol to 5HT₂ receptors; read-out: IC₅₀. The text has this: As noted above, the compounds are also serotonin 5HT₂ antagonists. […] In this test, 5HT₂ receptors are exposed to both [³H] spiroperidol, (a substance known to have a specific affinity for the receptor) and the test compound. The extent to which there is a decrease in binding of the [³H] spiroperidol to the receptor is indicative of the affinity of the test compound for the 5HT₂ receptor.
1-(4-Fluorophenyl)-2-[4-[(4-methanesulfonamidophenyl)carbonyl]-1-piperidinyl]-ethanone (Compound #1) and 1-(4-fluorophenyl)-2-[4-[(4-acetamidophenyl)carbonyl]-1-piperidinyl]-ethanone (Compound #2) were tested in this procedure. For comparative purposes, 1-(3-pyridyl)-2-[4-[(4-methanesulfonamidophenyl)carbonyl]-1-piperidinyl]-ethanone (Compound #3) was also tested.

Assay [2] has as its system 5HT₂ receptor. Kind of assay: 5-DMT head twitch test. It is filed as in vivo. The conditions noted are these: ip; mice; head twitch induced by 5-methoxy-N,N-dimethyltryptamine. Here is the method: Psychopharmacol., Vol. 3, pages 89-92, (1979). The administration of 5-methoxy-N,N-dimethyltryptamine (DMT) to mice typically produces a characteristic head twitch in the mice. In this test, the mice are administered 5-DMT and a test compound. An absence of head twitches in the mice is considered to be predictive of the ability of the test compound to antagonize the 5HT₂ receptor in vivo.

In assay [3] the test system is canine. The experiment in a line: canine model of cyclic coronary blood flow reduction (Folts). The format is in vivo. The following applies: Canis lupus familiaris, iv, cyclic flow reduction of the left anterior descending coronary artery, read-out: DOSAGE TO PREVENT CFR. The text has this:
This procedure is well known in the art and has been described by John D. Folts, Edward B. Crowell Jr. and George G. Rowe, Circulation Vol 54, pages 365-370 (1976).
In Folts's model, the left anterior descending coronary artery of a canine is surgically isolated and the endothelial lining of this artery is purposefully damaged by squeezing the vessel in order to insure that the platelets will have the opportunity to come in contact with the collagen underlying the endothelial lining. This initiates the process of thrombus formation which was described above. An electronic flow probe is then placed on the artery so that blood flow through this vessel can be measured. A constrictor is then placed around the artery to produce a critical stenosis. The stenosis is said to be critical because the degree of stenosis is adjusted to abolish the hyperemic response following a 15 second occlusion of the artery. Shortly after producing the critical stenosis, blood flow through this segment of coronary artery will slowly decrease to near zero followed by a sudden return to control levels. The slow decrease in blood flow is caused by the formation of a platelet thrombus which occludes the artery. The sudden return of blood flow is due to dislodgement of the thrombus and/or its resulting conversion into an emboli.
This model can be utilized to test compounds for the ability to inhibit platelet aggregation and therefore prevent the formation of thrombi.
1-(4-Fluorophenyl)-2-[4-[(4-methanesulfonamidophenyl)carbonyl]-1-piperidinyl]-ethanone (Compound #1) and 1-(4-fluorophenyl)-2-[4-[(4-acetamidophenyl)carbonyl]-1-piperidinyl]-ethanone (Compound #2) were tested in this model. For comparative purposes, 1-(3-pyridyl)-2-[4-[(4-methanesulfonamidophenyl)carbonyl]-1-piperidinyl]-ethanone (Compound #3) was also tested in this model. This compound was prepared and described in Example 35 of European Patent Application 0 235 752, supra.

T1 sequence (P14842 whole entry): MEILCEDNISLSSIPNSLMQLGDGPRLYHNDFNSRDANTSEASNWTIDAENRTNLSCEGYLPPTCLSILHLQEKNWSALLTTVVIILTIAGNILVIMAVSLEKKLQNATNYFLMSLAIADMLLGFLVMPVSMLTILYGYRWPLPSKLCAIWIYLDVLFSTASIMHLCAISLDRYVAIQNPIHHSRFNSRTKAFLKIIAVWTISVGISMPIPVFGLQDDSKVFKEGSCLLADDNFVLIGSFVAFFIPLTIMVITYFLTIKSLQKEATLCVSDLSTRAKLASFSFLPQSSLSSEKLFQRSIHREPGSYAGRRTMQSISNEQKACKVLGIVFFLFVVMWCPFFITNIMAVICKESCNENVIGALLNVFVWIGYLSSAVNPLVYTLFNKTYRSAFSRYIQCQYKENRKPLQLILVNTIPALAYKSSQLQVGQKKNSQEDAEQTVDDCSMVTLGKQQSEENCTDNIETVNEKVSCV

Turning to `CS(=O)(=O)Nc1ccc(C(=O)C2CCN(CC(=O)c3ccc(F)cc3)CC2)cc1` [Compound #1, 1-(4-Fluorophenyl)-2-[4-[(4-methanesulfonamidophenyl)carbonyl]-1-piperidinyl]-ethanone], the IC50 in assay [1] turned out to be 78 nM. Besides, the “ED₅₀ FOR ABOLITION OF HEAD TWITCH” value in assay [2] was found to be 0.034 mg/kg. For the same molecule, the minimal effective dose in assay [3] came to 1 µg/kg.
Turning to `CC(=O)Nc1ccc(C(=O)C2CCN(CC(=O)c3ccc(F)cc3)CC2)cc1` [Compound #2, 1-(4-fluorophenyl)-2-[4-[(4-acetamidophenyl)carbonyl]-1-piperidinyl]-ethanone], the IC50 in assay [1] is 20 nM. Moreover, the “ED₅₀ FOR ABOLITION OF HEAD TWITCH” value in assay [2] came to 0.051 mg/kg. Further, the minimal effective dose in assay [3] stood at 1 µg/kg.
In the same order, the values of `CS(=O)(=O)Nc1ccc(C(=O)C2CCN(CC(=O)c3cccnc3)CC2)cc1` [Compound #3, 1-(3-pyridyl)-2-[4-[(4-methanesulfonamidophenyl)carbonyl]-1-piperidinyl]-ethanone, reference compound] are more than 5000 nM, more than 200 mg/kg and more than 100 µg/kg.
